Patent US20160150766A1, “ADVANCING GENETIC GAIN IN BOVINE” (priority 2013, published 2016)

Test system: prepubescent calves
Assay: Laparoscopic oocyte retrieval from superstimulated prepubescent calves
Type: in vivo, bovine
Conditions: calves 3.5-6 months of age, superstimulated: progesterone CIDR, FSH s.c. at 12-hour intervals (20/15/10 mg/dose), 50 mg LH i.v.; aspiration 23 hours after LH
Experimental: Laparoscopic oocyte retrieval in prepubescent calves younger than six months of age provides an avenue of shortening the generation interval, thus increasing the rate of genetic gain. […] Three laparoscopic oocyte retrievals were performed on each calf, and the oocytes collected were fertilized in vitro and cultured to the blastocyst stage of development. Resulting embryos were transferred fresh into synchronized recipients, and pregnancies were carried out to Day 60. On average, nine oocytes were retrieved per aspiration when the calves were superstimulated. An average of six oocytes were retrieved from calves that had no FSH treatment.
Calves 3.5-6 months of age were used as egg donors. Initially a progesterone releasing device designed for sheep (Eazi Breed CIDR, Zoetis, USA) containing 0.3 g progesterone was inserted into the vagina of each calf and remained there for 12 days. The device was then removed for six days. A new CIDR was inserted and left for 12 days.
Superstimulation started nine days after insertion of the CIDR with the injection of […] follicle stimulating hormone (FSH) s.c. at 12-hour intervals, starting with two doses of 20 mg/dose, then two doses of 15 mg/dose, and finally two doses of 10 mg by the last injections. The CIDR was removed at the time of the final FSH injection and 50 mg of LH administered i.v. 2.5 days after removal of the CIDR. […]

## follicle stimulating hormone [FSH]
  oocytes retrieved per aspiration (average): nine
